According to patent publication US11390621B2, “Chiral indole compounds and their use” (ARIAGEN, INC., priority 2019, dated 2022):
Several values for one entry are separate records, joined by “and”; a condition that tells them apart may be missing. Equal values may be shown once.

What was measured:
Pan02 cancer cells = test: Pan02 subcutaneous syngeneic mouse tumor model (Example 48); type: in vivo, C57BL/6 mice; conditions: for TGI: 80 mg/kg, IP
Protocol: This example describes in vivo studies that evaluated the anti-cancer efficacy of ARI-143, ARI-164, ARI-165, and ARI-186 in syngeneic mouse tumor models. Mice implanted subcutaneously with EMT-6 or Pan02 cancer cells were treated with ARI-143, ARI-164, ARI-165, ARI-186, or vehicle controls, as described below.
A monolayer culture of tumor cells was maintained in vitro in DMEM or RPMI1640 medium supplemented with 10% fetal bovine serum at 37° C. in an atmosphere of 5% CO2. Cells in exponential growth phase were harvested and quantitated by cell counter before tumor inoculation. The cell lines used are described in the table below.
Two subcutaneous syngeneic mouse tumor models were generated by innoculating female BALB/C or C57BL/6 mice with cancer cells at their right lower or front flank as detailed in the table below:
Each mouse was inoculated subcutaneously with tumor cells in 0.1 mL of PBS. Treatments were started when the mean tumor size reached approximately 80-120 mm^3 (around 100 mm^3). The administration of the test compounds and the animal number in each study group are shown in the study design. The date of tumor cell inoculation was denoted as day 0.
ARI-143, ARI-164, and ARI-165 were dissolved in DMSO at the final concentration of 26.7 mg/ml and stored at room temperature. In Pan02 studies of ARI-164 and ARI-186, both compounds were dissolved in 100% PEG400.
Randomization of animals was started when the mean tumor size reached approximately 90 mm^3 to form the mouse study groups. The randomization was-performed based on “Matched distribution” method using the multi-task method (StudyDirector™ software, version 3.1.399.19)/randomized block design. […]
After tumor cell inoculation, the mice were checked daily for morbidity and mortality. During routine monitoring, the mice were checked for tumor growth and any effects of the treatment on behavior such as mobility, food and water consumption, body weight gain/loss (body weights were measured twice per week after randomization), eye/hair matting, and any other abnormalities. Mortality and observed clinical signs were recorded for individual mice in detail.
Tumor volumes were measured twice per week in two dimensions using a caliper, and the volume was expressed in mm^3 using the formula: V=(L×W×W)/2, where V is tumor volume, L is tumor length (the longest tumor dimension) and W is tumor width (the longest tumor dimension perpendicular to L). Dosing as well as tumor and body weight measurements was conducted in a Laminar Flow Cabinet. The body weights and tumor volumes were measured by using StudyDirector™ software (version 3.1.399.19). Dosing Holiday
Tumor growth inhibition percentage (TGI %) is an indicator for antitumor activity of a drug compound, and expressed as: TGI(%)=100×(1−T/C), where T and C are the mean tumor volume (or weight) of the treated and control groups, respectively, on a given day. Statistical analysis of the difference in mean tumor volume (MTV) among the groups was conducted using the data collected on the day when the MTV of the vehicle group reached the humane endpoints, so that TGI could be derived for all or most mice enrolled in the study.

[1] = In vivo pharmacokinetic studies in rats; parameters: species or system SD rats; conditions: for Tmax: read-out: Tmax
Protocol: This example describes pharmacokinetic (PK) studies of ARI-164, ARI-165, ARI-186, ARI-224, and ARI-226 in mice and rats. In the present studies, the test compounds were given to groups of mice and/or rats (N=3 in each group), intravenously (IV) at 2 mg/kg or orally (PO) at 10, 30, or 40 mg/kg. ARI-186, ARI-224 and ARI-226 were given orally to rats QD for 5 days at 10 mg/kg to assess whether decreased susceptibility to CYP1A1/1A2 metabolism would lead to increased accumulation. IV doses were formulated in DMSO, while PO doses were formulated in a 50/50 mixture of PEG400 and Tween 80 (single dose mouse and rat studies for ARI-164, ARI-165, ARI-186, ARI-224, ARI-226) or PEG400/Kolliphor HS15/Oleic Acid 45/45/10 (ARI-164 repeat dose rat study). Blood samples were collected at pre-dose and over a period of 24 hours post-dose. Plasma concentrations of the test compounds were determined by HPLC.

[2] = In vivo pharmacokinetic studies in mice; parameters: species or system Balb/C mice; conditions: mice
[3] = SD, rat, plasma, iv, 2 mg/kg, rats, single 2 mg/kg IV dose, Mean of 3 animals
[4] = SD, rat, plasma, iv, 2 mg/kg, rats, single 2 mg/kg IV dose, individual animal
[5] = Sprague-Dawley (SD), rat, plasma, iv, 2 mg/kg, rats, single 2 mg/kg IV dose, Mean of 3 animals
[6] = Sprague-Dawley (SD), rat, plasma, po, 10 mg/kg, rats, single 10 mg/kg PO dose, Mean of 3 animals
[7] = Sprague-Dawley (SD), rat, plasma, po, 10 mg/kg, rats, single 10 mg/kg PO dose, individual animal
[8] = rats, single 2 mg/kg IV dose, individual animal, 2 mg/kg
[9] = rats, single 10 mg/kg PO dose, individual animal, 10 mg/kg
[10] = Balb/C, mouse, plasma, single 40 mg/kg oral dose
[11] = Balb/C, mouse, plasma, single 40 mg/kg oral dose, from mean profile
[12] = single 40 mg/kg oral dose, Mean
[13] = single 40 mg/kg oral dose, individual mouse (M1-M3), 40 mg/kg

CC[C@H](O)c1csc(C(=O)c2c[nH]c3cc(F)ccc23)n1 [ARI-164, (S)-(6-Fluoro-1H-indol-3-yl)(4-(1-hydroxypropyl)thiazol-2-yl)methanone]
TGI (Pan02 cancer cells; study day 0): −0.6%
TGI (Pan02 cancer cells; study day 4): −4.4%
TGI (Pan02 cancer cells; study day 7): −8.4%
TGI (Pan02 cancer cells; study day 11): 26.6%
TGI (Pan02 cancer cells; study day 14): 40.6%
TGI (Pan02 cancer cells; study day 18): 35.3%
tumor inhibition versus vehicle (Pan02 cancer cells; Pan02 tumors, 80 mpk i.p. QD, study day 18): 35%
AUC(0-inf) [1, 3]: 21500 ng·h/mL
clearance [1, 3]: 1.55 mL/min/kg
AUC(0-t) ([1]; SD, rat, plasma, iv, 2 mg/kg, rats, single 2 mg/kg IV dose, Mean of 3 animals, read-out: AUClast): 21400 ng·h/mL
AUC(0-inf) [1, 4]: 20500 ng·h/mL
clearance [1, 4]: 1.63 mL/min/kg
half-life [1, 4]: 3.91 h
AUC(0-t) ([1]; SD, rat, plasma, iv, 2 mg/kg, rats, single 2 mg/kg IV dose, individual animal, read-out: AUClast): 20300 ng·h/mL
Cmax ([1]; SD, rat, plasma, iv, 2 mg/kg, rats, single 2 mg/kg IV dose, individual animal, read-out: Cmax): 42200 ng/mL
Tmax [1, 4]: 0.083 h
MRT inf [1, 5]: 1.69 h
MRT last [1, 5]: 1.63 h
half-life [1, 5]: 2.85 h
Cmax ([1]; Sprague-Dawley (SD), rat, plasma, iv, 2 mg/kg, rats, single 2 mg/kg IV dose, Mean of 3 animals, read-out: Cmax): 40700 ng/mL
Tmax [1, 5]: 0.083 h
Vd ([1]; Sprague-Dawley (SD), rat, plasma, iv, 2 mg/kg, rats, single 2 mg/kg IV dose, Mean of 3 animals, read-out: Vss): 0.155 L/kg
AUC(0-inf) [1, 6]: 2090 ng·h/mL
MRT inf [1, 6]: 2.87 h
MRT last [1, 6]: 2.85 h
half-life [1, 6]: 1.37 h
AUC(0-t) ([1]; Sprague-Dawley (SD), rat, plasma, po, 10 mg/kg, rats, single 10 mg/kg PO dose, Mean of 3 animals, read-out: AUClast): 2090 ng·h/mL
Cmax ([1]; Sprague-Dawley (SD), rat, plasma, po, 10 mg/kg, rats, single 10 mg/kg PO dose, Mean of 3 animals, read-out: Cmax): 511 ng/mL
Tmax [1, 6]: 1.67 h
AUC(0-inf) [1, 7]: 2110 ng·h/mL
MRT inf [1, 7]: 2.65 h
MRT last [1, 7]: 2.64 h
AUC(0-t) ([1]; Sprague-Dawley (SD), rat, plasma, po, 10 mg/kg, rats, single 10 mg/kg PO dose, individual animal, read-out: AUClast): 2110 ng·h/mL
Cmax ([1]; Sprague-Dawley (SD), rat, plasma, po, 10 mg/kg, rats, single 10 mg/kg PO dose, individual animal, read-out: Cmax): 532 ng/mL
Tmax [1, 7]: 2 h
bioavailability ([1]; Sprague-Dawley (SD), rat, plasma, rats, 10 mg/kg PO vs 2 mg/kg IV, read-out: F (Bioavailability)): 1.94%
Cmax/Dose ([1]; male rats, repeat 30 mg/kg oral dose, Day 1, Mean): 16.6 kg·ng/mL/mg
Tlast^a ([1]; male rats, repeat 30 mg/kg oral dose, Day 1, Mean row): 8 h
Cmax/Dose ([1]; male rats, repeat 30 mg/kg oral dose, Day 7, Mean): 0.245 kg·ng/mL/mg
Tlast^a ([1]; male rats, repeat 30 mg/kg oral dose, Day 7, range printed in SD row): (1-4) hr
Cmax at 1 day ([1]; male, Sprague-Dawley (SD), rat, plasma, po, 30 mg/kg, male rats, repeat 30 mg/kg oral dose, Day 1, Mean): 499 ng/mL
Tmax at 1 day ([1]; male, Sprague-Dawley (SD), rat, plasma, po, 30 mg/kg, male rats, repeat 30 mg/kg oral dose, Day 1, Mean row, read-out: Tmax^a): 1 h
AUC(0-t) ([1]; male, Sprague-Dawley (SD), rat, plasma, po, 30 mg/kg, male rats, repeat 30 mg/kg oral dose, Day 1, Mean, read-out: AUCTlast): 1430 ng·h/mL
Cmax at 7 day ([1]; male, Sprague-Dawley (SD), rat, plasma, po, 30 mg/kg, male rats, repeat 30 mg/kg oral dose, Day 7, Mean): 2.93 ng/mL
Tmax at 7 day ([1]; male, Sprague-Dawley (SD), rat, plasma, po, 30 mg/kg, male rats, repeat 30 mg/kg oral dose, Day 7, Mean row): 1 h
decrease in exposure after repeat oral dosing ([1]; rats, 30 mg/kg QD): greater than 90%
AUCinf [1, 8]: 23000 ng·h/mL and 21000 ng·h/mL
AUClast [1, 8]: 23000 ng·h/mL and 21000 ng·h/mL
Cl [1, 8]: 1.45 mL/min/kg and 1.58 mL/min/kg
Cmax [1, 8]: 35400 ng/mL and 44500 ng/mL
MRTinf [1, 8]: 1.53 h and 2.5 h and 1.04 h
MRTlast [1, 8]: 1.38 h and 2.49 h and 1.03 h
T1/2 [1, 8]: 2.39 h and 2.24 h
Vss [1, 8]: 0.149 L/kg and 0.218 L/kg and 0.0986 L/kg
AUCinf [1, 9]: 2660 ng·h/mL and 1500 ng·h/mL
AUClast [1, 9]: 2650 ng·h/mL and 1500 ng·h/mL
Cmax [1, 9]: 646 ng/mL and 354 ng/mL
MRTinf [1, 9]: 3.05 h and 2.92 h
MRTlast [1, 9]: 3.02 h and 2.88 h
T1/2 [1, 9]: 0.56 h and 0.746 h and 2.82 h
AUC [2, 10]: 3010 ng·h/mL
bioavailability [2, 10]: 15.1%
Cmax [2, 11]: 1870 ng/mL
Tmax [2, 11]: 0.5 h
AUC(0-t) ([2]; Balb/C, mouse, plasma, single 40 mg/kg oral dose, from mean profile, read-out: AUC0-t): 3010 ng·h/mL
AUC(0-inf) ([2]; Balb/C, mouse, plasma, single 40 mg/kg oral dose, from mean profile, read-out: AUC0-∞): 3020 ng·h/mL
half-life ([2]; Balb/C, mouse, plasma, single 40 mg/kg oral dose, from mean profile, read-out: t1/2 (converted)): 1.4 h
half-life ([2]; Balb/C, mouse, plasma, read-out: half-life (converted)): 1.4 h
plasma concentration at 0.083 hr [2, 12]: 206.7
plasma concentration at 0.25 hr [2, 12]: 1623
plasma concentration at 0.5 hr [2, 12]: 1867
plasma concentration at 1 hr [2, 12]: 1193
plasma concentration at 2 hr [2, 12]: 506
plasma concentration at 4 hr [2, 12]: 82.8
plasma concentration at 8 hr [2, 12]: 7.1
plasma concentration at 12 hr [2, 12]: 6.5
plasma concentration at 24 hr ([2]; single 40 mg/kg oral dose, individual mouse (M1-M3)): BLQ
plasma concentration at 0.083 hr [2, 13]: 330 and 202 and 88
plasma concentration at 0.25 hr [2, 13]: 1780 and 1740 and 1350
plasma concentration at 0.5 hr [2, 13]: 1960 and 2020 and 1620
plasma concentration at 1 hr [2, 13]: 1050 and 1600 and 930
plasma concentration at 2 hr [2, 13]: 463 and 572 and 482
plasma concentration at 4 hr [2, 13]: 101 and 79.3 and 68.2
plasma concentration at 8 hr [2, 13]: 7.1 and BLQ (2×)
plasma concentration at 12 hr [2, 13]: 7.5 and BLQ and 5.6
